In US20240327789A1, “HUMAN CEREBELLAR ORGANOIDS WITH BONA FIDE PURKINJE CELLS AND USES THEREOF” (University of Southern California, priority 2023, published 2024):

Tested on: hCerOs
Assay: Two-photon calcium imaging of intact hCerOs with bath application of drugs
Type: cell-based, human

NC1=N[C@H](O)[C@H]2[C@H]3O[C@]4(O)O[C@@H]([C@@H](O)[C@@]2(N1)[C@@H]4O)[C@]3(O)CO [Tetrodotoxin]
sensitivity of individual Ca2+ neuronal calcium signals: sensitive
